# From patent publication EP0406628A1, “Monoclonal antibody against endothelin, hybridoma capable of producing the same and radioimmunoassay for endothelin by using the same” (SHIONOGI & CO., LTD., priority 1989, dated 1991)
# Bridge positions count the residues as written; N and C are the ends. Ends that are not written are not given here.
# System: isolated rat aortic strips
# Test: Neutralization experiment: contractile response of isolated rat aortic strips to ET-1
# Conditions: synthetic ET-1 alone
# Description: Contractile responses of rat aortic strips were performed as previously reported (Toda, S., Nakajima, S., Miyazaki, M., Ueda, M.: Vasodilation induced by pinacidil in dogs _ comparison with hydralizine and nifedipine. J. Cardiovasc. Pharmacol. 1985;7:1118-1126). Aortic strips were incubated in an organ bath perfused at 37°C with balanced salt solution containing 139.7 mEq Na⁺, 5.4 mEq K⁺, 2.2 mEq Ca²⁺, 1.0 mEq Mg²⁺, 131.5 mEq Cl⁻ and 20 mEq HCO₃⁻. Purified monoclonal antibody (0.05 µg/ml - 5 µg/ml) was added 3 min before the ET-1 administration.
substance,measurement,value
"ET-1: endothelin-1, purchased from Peptide Institute Inc.; original form isolated from culture medium of porcine aortic endothelial cells (CSCSSLMDKECVYFCHLDIIW; disulfide 1-15, 3-11; ends not checked; UniProt P05305 53-73, looked up)",vasoconstriction,induced a vasoconstriction in isolated rat aortic strips in a dose-dependent manner
